According to US9193697B2, “Oxazole derivatives useful as modulators of FAAH” (MERCK SHARP & DOHME CORP., priority 2010, dated 2015):

Experiments:
[1] = target: T1, human FAAH (Fatty Acid Amide Hydrolase) (Homo sapiens (Human), UniProt O00519); assay: FAAH inhibition, human FAAH CHO cell lysate (AAMCA fluorescence); assay type: biochemical
Excerpt: (§1) To assist in assay development stable cell lines for human, murine and rat full length FAAH were developed. […] The full length FAAH was subcloned into the mammalian expression vector, pcDEF.neo, using XbaI and EcoRI restriction sites and used for stable cell line generation.
(§2) The full length murine FAAH was subcloned into the mammalian expression vector, pcDEFneo using either EcoRI (murine) or KpnI and EcoRI (rat) restriction sites. Chinese hamster ovary cells (CHO) were transfected following manufacturers protocol (AMAXA). Forty eight hours post transfection, cells were trypsinized and transferred to 96 well plates in Iscove's DMEM media supplemented with 2 mM Glutamine, 10% fetal calf serum, 1 mg/ml geneticin and HT Supplement (0.1 mM sodium hypoxanthine, 0.016 mM thymidine) in order to isolate single clones. […] Following removal of tissue culture media cells were dislodged following addition of Cellstripper (Mediatech, Inc. Manassas, Va.) and transferred to 96 well black clear bottom assay plate, centrifuged at 1,000 rpm for 3 mins and media removed and replaced with assay buffer (50 mM Tris pH8.0, 1 mM EDTA, 0.1% fatty acid free BSA). The reaction was initiated by addition of fluorescent substrate, AMC Arachidonoyl Amide (Cayman Chemical, Ann Arbor, Mich.) to 1 μM and reaction allowed to proceed for 2 hours at room temperature. Release of fluorescence was monitored in a CytoFluor Multiplate Reader.
CHO cells expressing FAAH were used to prepare either crude cell lysate or microsome fractions. To harvest cells, tissue culture media was decanted, the monolayer washed three times with Ca^++Mg^++ free PBS and cells recovered after 15 min in enzyme free dissociation media (Millipore Corp, Billerica, Mass.). Cells were collected by centrifuging at 2000 rpm for 15 min, and the cell pellet re-suspended with 50 mM HEPES (pH 7.4) containing 1 mM EDTA and the protease inhibitors aprotinin (1 mg/ml) and leupeptin (100 μM). The suspension was sonicated at 4° C. and the cell lysate recovered after centrifuging at 12,000×g (14,600 rpm, SS34 rotor) for 20 min at 4° C. to form a crude pellet of cell debris, nuclei, peroxisomes, lysosomes, and mitochondria; the supernatant or cell lysate was used for FAAH enzyme assay. In some eases, microsomes fractions enriched in FAAH were prepared by centrifuging the cell lysate further at 27,000 rpm (100,000×g) in SW28 rotor for 50 minutes at 4° C. The pellet containing FAAH-enriched microsomes was re-suspend in 50 mM HEPES, (pH 7.4) 1 mM EDTA, and any remaining DNA sheared by passage of material through a 23 gauge needle and aliquots of enzyme were store at −80° C. prior to use.
(§3) Assays are performed on either cell lysate or microsome fractions prepared as described or in whole cell format employing either the fluorescent substrate AAMCA (Cayman chemical, Ann Arbor, Mich.,) or ^3H-anandamide ([ETHANOLAMINE-1-3H] American Radiolabeled Chemicals; 1 mCi/ml). […] AAMCA substrate was used to achieve a final concentration of 1 μM and reaction allowed to proceed at room temperature for 1-3 hours. […] Whole cell assay is conducted with cells harvested after rinsing tissue culture flasks three times with Ca^++Mg^++ free PBS, incubating for 10 min in Enzyme free dissociation media and centrifuging for 5 minutes at 1,000 rpm in table top centrifuge. Cells are resuspended in assay buffer at desired cell number in (4×10^4 cells/assay in 96-well format; 1×10^4 cells/assay in 384-well format) and assayed as described.
Alternatively, assays are performed using anandamide [ethanolamine 1-^3H] (specific activity of 10 Ci/mmol) diluted with cold anandamide to achieve a final assay concentration of 1 μM anandamide (˜50,000 cpm). Enzyme (CHO cell lysate, brain or liver homogenate) is incubated in assay buffer (50 mM Phosphate, pH 8.0, 1 mM EDTA, 200 mM KCl, 0.2% glycerol, 0.1% fatty acid free BSA) with inhibitor at 25° C. for 30 minutes.

[2] = target: T1, human FAAH (Fatty Acid Amide Hydrolase); assay: FAAH inhibition, human FAAH CHO whole cell format; assay type: cell-based
Excerpt: as §1, §2, §3

T1 sequence (O00519 whole entry): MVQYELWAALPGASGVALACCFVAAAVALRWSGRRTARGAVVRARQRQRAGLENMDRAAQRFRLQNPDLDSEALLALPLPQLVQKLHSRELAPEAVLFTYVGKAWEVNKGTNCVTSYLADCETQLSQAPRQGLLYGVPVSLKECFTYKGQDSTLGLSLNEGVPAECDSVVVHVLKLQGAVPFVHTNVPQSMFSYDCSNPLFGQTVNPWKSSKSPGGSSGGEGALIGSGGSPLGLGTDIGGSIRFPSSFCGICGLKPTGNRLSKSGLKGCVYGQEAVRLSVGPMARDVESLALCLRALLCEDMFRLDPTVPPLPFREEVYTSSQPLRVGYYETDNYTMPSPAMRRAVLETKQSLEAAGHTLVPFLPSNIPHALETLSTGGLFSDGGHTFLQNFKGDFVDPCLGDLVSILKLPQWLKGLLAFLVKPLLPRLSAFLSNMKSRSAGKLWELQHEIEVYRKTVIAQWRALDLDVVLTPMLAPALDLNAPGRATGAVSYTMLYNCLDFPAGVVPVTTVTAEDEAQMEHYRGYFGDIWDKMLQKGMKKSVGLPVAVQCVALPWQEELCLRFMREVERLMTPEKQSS

Structure (SMILES) | IC50 [1] | IC50 [2]
Clc1ccc(Sc2oc(C3CCOCC3)nc2-c2cnc3[nH]ccc3c2)cc1 [Example B5.4, 5-{5-[(4-chlorophenyl)sulfanyl]-2-(tetrahydro-2H-pyran-4-yl)-1,3-oxazol-4-yl}-1H-pyrrolo[2,3-b]pyridine] | 27.6 nM | 63.8 nM
COC(=O)N1CCC(c2nc(-c3ccc([S+](C)[O-])cc3)c(Sc3ccc(Cl)cn3)o2)CC1 (stereo not shown) [Example A7.17, methyl 4-{5-[(5-chloropyridin-2-yl)sulfanyl]-4-[4-(methylsulfinyl)phenyl]-1,3-oxazol-2-yl}piperidine-1-carboxylate] | 75.1 nM | 547 nM
Clc1ccc(Sc2oc(C3CCOCC3)nc2-c2cnc3cc[nH]c3c2)cc1 [Example B5.12, 6-{5-[(4-chlorophenyl)sulfanyl]-2-(tetrahydro-2H-pyran-4-yl)-1,3-oxazol-4-yl}-1H-pyrrolo[3,2-b]pyridine] | 113 nM | 279 nM
Clc1ccc(Sc2oc(C3CCOCC3)nc2-c2ccc(N3CCOCC3)nc2)cc1 [Example B5.3, 4-(5-{5-[(4-chlorophenyl)sulfanyl]-2-(tetrahydro-2H-pyran-4-yl)-1,3-oxazol-4-yl}pyridin-2-yl)morpholine] | 12.8 nM | 38.5 nM
Clc1ccc(Sc2oc(C3CCOCC3)nc2C2=CCCNC2)cc1 [Example B5.15, 5-{5-[(4-chlorophenyl)sulfanyl]-2-(tetrahydro-2H-pyran-4-yl)-1,3-oxazol-4-yl}-1,2,3,6-tetrahydropyridine] | 4530 nM | ≥ 10000 nM
CN(C)CCOC(=O)N1CCC(c2nc(-c3ccc([S+](C)[O-])cc3)c(Sc3ccc(Cl)cn3)o2)CC1 (stereo not shown) [Example A7.29, 2-(dimethylamino)ethyl 4-{5-[(5-chloropyridin-2-yl)sulfanyl]-4-[4-(methylsulfinyl)phenyl]-1,3-oxazol-2-yl}piperidine-1-carboxylate] | 1910 nM | ≥ 10000 nM
Cn1nnc2ccc(-c3nc(C4CCOCC4)oc3Sc3ccc(Cl)cc3)cc21 [Example B5.7, 6-{5-[(4-chlorophenyl)sulfanyl]-2-(tetrahydro-2H-pyran-4-yl)-1,3-oxazol-4-yl}-1-methyl-1H-benzotriazole] | 92.2 nM | 169 nM
CCNC(=O)[C@H]1CC[C@H](c2nc(-c3ccc(C(C)(C)O)nc3)c(Sc3ccc(Cl)cc3)o2)CC1 [Example B5.39, trans-4-{5-[(4-chlorophenyl)sulfanyl]-4-[6-(2-hydroxypropan-2-yl)pyridin-3-yl]-1,3-oxazol-2-yl}-N-ethylcyclohexanecarboxamide] | – | 26.2 nM
O=C(OCc1ccccc1)N1CCC(c2nc(C3CCOCC3)oc2Sc2ccc(Cl)cn2)CC1 [Example A7.35, benzyl 4-{5-[(5-chloropyridin-2-yl)sulfanyl]-2-(tetrahydro-2H-pyran-4-yl)-1,3-oxazol-4-yl}piperidine-1-carboxylate] | – | ≥ 10000 nM
Cc1nnc(-c2cccc(-c3nc(C4CCOCC4)oc3Sc3ccc(Cl)cc3)c2)o1 [Example B5.29, 2-(3-{5-[(4-chlorophenyl)sulfanyl]-2-(tetrahydro-2H-pyran-4-yl)-1,3-oxazol-4-yl}phenyl)-5-methyl-1,3,4-oxadiazole] | – | ≥ 10000 nM
COC(=O)N1CCC(c2nc(C3CCOCC3)oc2Sc2ccc(Cl)cn2)CC1 [Example A7.32, methyl 4-{5-[(5-chloropyridin-2-yl)sulfanyl]-2-(tetrahydro-2H-pyran-4-yl)-1,3-oxazol-4-yl}piperidine-1-carboxylate] | – | 142 nM
CC(C)(O)c1ccc(-c2nc(C3CCOCC3)oc2Sc2ccc(OC(F)F)cn2)cn1 [Example A7.7, 2-{5-[5-{[5-(difluoromethoxy)pyridin-2-yl]sulfanyl}-2-(tetrahydro-2H-pyran-4-yl)-1,3-oxazol-4-yl]pyridin-2-yl}propan-2-ol] | – | 2210 nM
Clc1ccc(Sc2oc(C3CCOCC3)nc2-c2cnc3n2CCC3)cc1 [Example B5.25, 3-{5-[(4-chlorophenyl)sulfanyl]-2-(tetrahydro-2H-pyran-4-yl)-1,3-oxazol-4-yl}-6,7-dihydro-5H-pyrrolo[1,2-a]imidazole] | – | 205 nM
COc1ccc(OC(=O)N2CCC(c3nc(C4CCOCC4)oc3Sc3ccc(Cl)cn3)CC2)cc1 [Example A7.39, 4-methoxyphenyl 4-{5-[(5-chloropyridin-2-yl)sulfanyl]-2-(tetrahydro-2H-pyran-4-yl)-1,3-oxazol-4-yl}piperidine-1-carboxylate] | – | 2810 nM
COc1ccc(Sc2oc(C3CCOCC3)nc2-c2ccc(C(C)(C)O)nc2)nc1 [Example A7.4, 2-(5-{5-[(5-methoxypyridin-2-yl)sulfanyl]-2-(tetrahydro-2H-pyran-4-yl)-1,3-oxazol-4-yl}pyridin-2-yl)propan-2-ol] | – | 454 nM
COc1ccc(Sc2oc(C3CCOCC3)nc2-c2ccc(C(C)(C)O)nc2)cn1 [Example A7.8, 2-(5-{5-{(6-methoxypyridin-3-yl)sulfanyl]-2-(tetrahydro-2H-pyran-4-yl)-1,3-oxazol-4-yl}pyridin-2-yl)propan-2-ol] | – | 1190 nM
CN1CCN(c2ccc(-c3nc(C4CCOCC4)oc3Sc3ccc(Cl)cc3)cn2)CC1 [Example B5.27, 1-(5-{5-[(4-chlorophenyl)sulfanyl]-2-(tetrahydro-2H-pyran-4-yl)-1,3-oxazol-4-yl}pyridin-2-yl)-4-methylpiperazine] | – | 141 nM
O=C(c1ccc(-c2nc(C3CCOCC3)oc2Sc2ccc(Cl)cc2)cc1)N1CC2CC1CO2 (stereo not shown) [Example B5.18, (4-{5-[(4-chlorophenyl)sulfanyl]-2-(tetrahydro-2H-pyran-4-yl)-1,3-oxazol-4-yl}phenyl)(2-oxa-5-azabicyclo[2.2.1]hept-5-yl)methanone] | – | 375 nM
CCNC(=O)N1CCC(c2nc(C3CCOCC3)oc2Sc2ccc(Cl)cn2)CC1 [Example A7.40, 4-{5-[(5-chloropyridin-2-yl)sulfanyl]-2-(tetrahydro-2H-pyran-4-yl)-1,3-oxazol-4-yl}-N-ethylpiperidine-1-carboxamide] | – | 9700 nM
O=C(c1ccc(-c2nc(C3CCOCC3)oc2Sc2ccc(Cl)cc2)cc1)N1CCC(O)CC1 [Example B5.19, (4-{5-[(4-chlorophenyl)sulfanyl]-2-(tetrahydro-2H-pyran-4-yl)-1,3-oxazol-4-yl}phenyl)(4-hydroxypiperidin-1-yl)methanone] | – | 2670 nM
CC(C)(O)c1ccc(-c2nc(C3CCOCC3)oc2Sc2ccccc2Cl)cn1 [Example A7.10, 2-(5-{5-[(2-chlorophenyl)sulfanyl]-2-(tetrahydro-2H-pyran-4-yl)-1,3-oxazol-4-yl}pyridin-2-yl)propan-2-ol] | – | ≥ 10000 nM
CC(C)(O)c1ccc(-c2nc(C3CCOCC3)oc2Sc2ccc(Cl)cn2)cn1 [Example A7.1, 2-(5-{5-[(5-chloropyridin-2-yl)sulfanyl]-2-(tetrahydro-2H-pyran-4-yl)-1,3-oxazol-4-yl}pyridin-2-yl)propan-2-ol] | – | 314 nM
CCOC(=O)N1CCC(c2nc(C3CCOCC3)oc2Sc2ccc(Cl)cn2)CC1 [Example A7.34, ethyl 4-{5-[(5-chloropyridin-2-yl)sulfanyl}-2-(tetrahydro-2H-pyran-4-yl)-1,3-oxazol-4-yl}piperidine-1-carboxylate] | – | 150 nM
O=C(c1ccc(-c2nc(C3CCOCC3)oc2Sc2ccc(Cl)cc2)cc1)N1CCOC1 [Example B5.20, (4-{5-[(4-chlorophenyl)sulfanyl]-2-(tetrahydro-2H-pyran-4-yl)-1,3-oxazol-4-yl}phenyl)(1,3-oxazolidin-3-yl)methanone] | – | 383 nM
